Data published in patent US10195156B2, “Compounds and compositions for intracellular delivery of agents” (ModernaTX, Inc., priority 2015, dated 2019).
Like-named read-outs stand apart in the source and are kept apart here.

Columns and labels:
[1] = pKa of nanoparticle compositions; type: physicochemical; conditions: Table 1; rows without footnote mark
[2] = test system: GFP expression in liver cells; assay: Mouse liver immunohistochemistry (IHC) with GFP mRNA; type: in vivo; conditions: FIG. 11, i.v., 0.5 mpk, 6 h (MC3, CD-1) or 8 h (Compound 4, LDLR knockout)
Description: FIG. 11 is a pair of images comparing the results of a mouse liver immunohistochemistry (IHC) using mRNA expressing green fluorescent protein (GFP) after administration of nanoparticle compositions containing Compound 4 and MC3.
FIG. 16 is a graph showing GFP levels in the livers of LDLR knockout mice at 30 min to 24 h after intravenous administration of an eGFP RNA in a lipid composition containing Compound 4. The liver GFP levels were determined via IHC. The square markers represent the number of GFP positive cells following administration of a dose of 0.1 mpk of the composition. The circular markers represent the number of GFP positive cells following administration of a dose of 0.5 mpk of the composition.

LDLr−/− mice = assay: Expression in LDLr−/− mice (LDLr dependence); type: in vivo; conditions: FIG. 9, FIG. 10
[3] = Encapsulation efficiency of RNA (QUANT-IT RIBOGREEN RNA assay); type: physicochemical; conditions: Table 1; rows without footnote mark
Outline: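 RiboGreen fluorescence (ex ~480, em ~520 nm) measured after 15 min at 37 °C on samples at ~5 μg/mL in TE, pH 7.5, ± 2% Triton X-100 solution. After blank subtraction, free RNA is given as intact-sample signal divided by disrupted-sample signal.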

hEPO mRNA expression [4] = assay: Expression of hEPO in rats after intravenous administration; type: in vivo; conditions: hEPO expression in S.D. rats
Description: PBS (phosphate buffered saline) is used as control.
Formulations were prepared according to Table 5 and included mRNA encoding hEPO.
[…] After the 48 hour time point, livers and spleens were harvested and frozen.

LDL-c = assay: LDL levels in LDLr−/− mice after mRNA encoding the LDL receptor; type: in vivo, LDLR knockout mice; conditions: Mus musculus; Table 7b; LDLr−/− mice, 0.5 mpk, LDLr; read-out: LDL levels lipid/untreated LDLr−/− mice 0.5 mpk, LDLr
hEPO mRNA expression [5] = assay: hEPO levels in non-human primates; type: in vivo; conditions: FIG. 10, up to ~50 h
Description: FIG. 10 is a graph showing hEPO levels in non-human primates up to ˜50 h after administration of a nanoparticle composition containing Compound 4, compared to a composition containing MC3.
The tolerability and efficacy of nanoparticle compositions to non-human primates is evaluated in Cynomolgus monkeys. Monkeys are administered an optimized nanoparticle composition including an mRNA encoding hEPO once weekly for four weeks. The levels of hEPO protein, mRNA, and cytokine profiles are measured using ELISA-based techniques before and 2, 6, 12, 24, 48, 72, and 120 hours after each administration.

[6] = Lipid levels in liver and spleen 48 hours after administration; type: in vivo, rats; conditions: for concentration at 48 h: Sprague-Dawley, rat, intravenous
Outline: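 Rats (n=3 or 6) received lipid nanoparticle formulations intravenously at 0.2 mg/kg or 0.5 mg/kg. Liver and spleen were harvested and frozen 48 h after dosing, and the lipid amount remaining in each tissue was measured and expressed as a fraction of the dose.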

Luc expression = assay: ApoE dependence of luciferase expression (ApoE knockout vs. wild-type mice); type: in vivo; conditions: 0.5 mpk, 6 h
Excerpt: FIG. 17 is a pair of graphs showing the ApoE dependence of luciferase (“Luc”) expression following administration of a composition containing Luc mRNA and Compound 4 to mice at a dose 0.5 mpk. The expression following administration of a composition containing Luc mRNA and MC3 is presented for comparison. […] The % change in Luc expression in livers of ApoE knockout vs. wild-type mice (i.e., (WT mean expression-KO mean expression)/WT mean expression]*100%) was 91.9% for Compound 4 and 97.5% for MC3. […] The % change in expression in spleens of ApoE knockout vs. wild-type mice was 4.34% for Compound 4 and 72.2% for MC3. Numbers 1-4 refer to the following: 1: Composition containing Compound 4, administered to ApoE knockout mice; 2: Composition containing Compound 4, administered to wild-type mice; 3: Composition containing MC3, administered to ApoE knockout mice; 4: Composition containing MC3, administered to wild-type mice.

[7] = Particle size and polydispersity index of nanoparticle compositions (Zetasizer Nano ZS); type: physicochemical; conditions: Table 1
Outline: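 Zetasizer Nano ZS; samples in 1×PBS; read-out: particle size plus polydispersity index.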

- pKa [1]: 7.12
- EE (%) [3]: 96.78%
- concentration at 48 h ([6]; liver, 48 hours after administration, read-out: Lipid in liver): 22000 ng/g
- concentration at 48 h ([6]; spleen, 48 hours after administration, read-out: Lipid in spleen): 5340 ng/g
- % remaining dose in liver ([6]; liver, 48 hours after administration): 38%
- % dose remainng Rat liver (48 h) ([6]; rat liver, 48 h): 37.82%
- % remaining dose in spleen ([6]; spleen, 48 hours after administration): 0.61%
- PDI ([7]; rows without footnote mark): 0.120
- Size (nm) ([7]; rows without footnote mark (lipid:DOPE:cholesterol:PEG-DMG 40:20:38.5:1.5, Luc mRNA; MC3 standard formulation)): 89.7 nm
Compound: CCCCCCCCCN(CCCCCCCCC)CCN(CCCCCCCCC)CC(=O)N1CCN(C(=O)CN(CCCCCCCCC)CCCCCCCCC)CC1 [Compound 4, 2-(Dinonylamino)-1-(4-(N-(2-(dinonylamino)ethyl)-N-nonylglycyl)piperazin-1-yl)ethan-1-one]
- GFP protein expression in liver cell types (in words) [2]: less protein expression in Kupffer cells
- LDLr dependence of the lipid (in words) (LDLr−/− mice): LDLr independent lipid
- AUC (0.1 mpk) (hEPO mRNA expression [4]; 0.1 mpk): 2.12E+06
- AUC/MC3 0.1 mpk (hEPO mRNA expression [4]; 0.1 mpk, relative to MC3): 1.3
- AUC (1 mpk) (hEPO mRNA expression [4]; 1 mpk): 6.79E+07
- AUC/MC3 1 mpk (hEPO mRNA expression [4]; 1 mpk, relative to MC3): 0.58
- response vs control in vivo at 0.5 mg/kg (LDL-c): 54%
- expression of hEPO compared to MC3 (hEPO mRNA expression [5]): 3 fold
- % change in Luc expression in livers of ApoE knockout vs. wild-type mice (Luc expression; FIG. 17 Graph A, liver): 91.9%
- % change in expression in spleens of ApoE knockout vs. wild-type mice (Luc expression; FIG. 17 Graph B, spleen): 4.34%
